Results from ChEMBL document CHEMBL1201862, “PubChem BioAssay data set” (2004).
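96-well plates; 48 h exposure; 5 concentrations. Endpoints by linear interpolation between flanking doses. Not reached: highest tested concentration assigned. GI50: concentration for 50% inhibition of growth.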 Activity calls are given as the source filed them. No stated cut-off is given here; in the data, active = GI50 up to about 1.1 µM and inactive = higher.

Experiments:
Test in all cases: NCI anticancer screen, dose series, 48 h
[1] = tested on: 786-0
[2] = tested on: A498
[3] = tested on: A549
[4] = tested on: ACHN
[5] = tested on: BT-549
[6] = tested on: CAKI-1
[7] = tested on: CCRF-CEM
[8] = tested on: COLO 205
[9] = tested on: DU-145
[10] = tested on: EKVX
[11] = tested on: HCC 2998
[12] = tested on: HCT-116
[13] = tested on: HCT-15
[14] = tested on: HL-60
[15] = tested on: HOP-62
[16] = tested on: HOP-92
[17] = tested on: HT-29
[18] = tested on: Hs-578T
[19] = tested on: IGROV-1
[20] = tested on: KM12
[21] = tested on: LOX IMVI
[22] = tested on: M14
[23] = tested on: MCF7
[24] = tested on: MDA-MB-231
[25] = tested on: MDA-MB-435
[26] = tested on: MDA-N
[27] = tested on: MOLT-4
[28] = tested on: Malme-3M
[29] = tested on: NCI-H226
[30] = tested on: NCI-H23
[31] = tested on: NCI-H460
[32] = tested on: NCI-H522
[33] = tested on: NCI/ADR-RES
[34] = tested on: OVCAR-3
[35] = tested on: OVCAR-4
[36] = tested on: OVCAR-5
[37] = tested on: OVCAR-8
[38] = tested on: PC-3
[39] = tested on: RPMI-8226
[40] = tested on: RXF 393
[41] = tested on: SF-268
[42] = tested on: SF-295
[43] = tested on: SF-539
[44] = tested on: SK-MEL-28
[45] = tested on: SK-MEL-2
[46] = tested on: SK-OV-3
[47] = tested on: SN12C
[48] = tested on: SNB-19
[49] = tested on: SNB-75
[50] = tested on: SW-620
[51] = tested on: T47D
[52] = tested on: TK-10
[53] = tested on: U-251
[54] = tested on: UACC-257
[55] = tested on: UACC-62
[56] = tested on: UO-31
[57] = tested on: SK-MEL-5

CCOC(=O)/C=C\c1c(Cl)n(-c2ccccc2)c(=O)n(-c2ccccc2)c1=O
GI50 [1]: 20.3 µM (inactive)
GI50 [2]: 21.3 µM (inactive)
GI50 [3]: 25.1 µM (inactive)
GI50 [4]: 20.7 µM (inactive)
GI50 [5]: 20.2 µM (inactive)
GI50 [6]: 19.5 µM (inactive)
GI50 [7]: 21.9 µM (inactive)
GI50 [8]: 18.5 µM (inactive)
GI50 [9]: 18.8 µM (inactive)
GI50 [10]: 21 µM (inactive)
GI50 [11]: 18.5 µM (inactive)
GI50 [12]: 23.8 µM (inactive)
GI50 [13]: 19.8 µM
GI50 [14]: 4.63 µM (inactive)
GI50 [15]: 20.8 µM (inactive)
GI50 [16]: 15.8 µM (inactive)
GI50 [17]: 19 µM (inactive)
GI50 [18]: 27.3 µM (inactive)
GI50 [19]: 17.6 µM (inactive)
GI50 [20]: 19.1 µM (inactive)
GI50 [21]: 22.6 µM (inactive)
GI50 [22]: 18.7 µM (inactive)
GI50 [23]: 22.6 µM (inactive)
GI50 [24]: 21.2 µM (inactive)
GI50 [25]: 22.1 µM (inactive)
GI50 [26]: 17 µM (inactive)
GI50 [27]: 38.5 µM (inactive)
GI50 [28]: 24.5 µM (inactive)
GI50 [29]: 20.7 µM (inactive)
GI50 [30]: 21.7 µM (inactive)
GI50 [31]: 18 µM (inactive)
GI50 [32]: 18.1 µM (inactive)
GI50 [33]: 26.5 µM (inactive)
GI50 [34]: 19.3 µM (inactive)
GI50 [35]: 30 µM (inactive)
GI50 [36]: 20.6 µM (inactive)
GI50 [37]: 17.4 µM (inactive)
GI50 [38]: 18.7 µM (inactive)
GI50 [39]: > 10 µM (inactive)
GI50 [40]: 17.9 µM (inactive)
GI50 [41]: 20.7 µM (inactive)
GI50 [42]: 21.9 µM (inactive)
GI50 [43]: 17.2 µM (inactive)
GI50 [44]: 18.9 µM (inactive)
GI50 [45]: 17.7 µM (inactive)
GI50 [46]: 22.2 µM (inactive)
GI50 [47]: 19.6 µM (inactive)
GI50 [48]: 16 µM (inactive)
GI50 [49]: 14.9 µM (inactive)
GI50 [50]: 23.8 µM (inactive)
GI50 [51]: 20.2 µM (inactive)
GI50 [52]: 18.1 µM (inactive)
GI50 [53]: 32 µM (inactive)
GI50 [54]: 18.6 µM (inactive)
GI50 [55]: 18.3 µM (inactive)
GI50 [56]: 18.8 µM (inactive)

OCCNc1ncnc2c1ncn2C1OC(CO)C(O)C1O (configuration not stated)
GI50 [1]: > 100 µM (inactive)
GI50 [2]: 57.7 µM (inactive)
GI50 [3]: > 100 µM (inactive)
GI50 [4]: 71.3 µM (inactive)
GI50 [5]: > 100 µM (inactive)
GI50 [6]: > 100 µM (inactive)
GI50 [7]: 30.3 µM (inactive)
GI50 [8]: > 100 µM (inactive)
GI50 [9]: 19.3 µM (inactive)
GI50 [10]: > 100 µM (inactive)
GI50 [11]: 64.9 µM (inactive)
GI50 [12]: 70.5 µM (inactive)
GI50 [13]: 42.5 µM
GI50 [14]: 33.1 µM (inactive)
GI50 [15]: > 100 µM (inactive)
GI50 [16]: 51.4 µM (inactive)
GI50 [17]: > 100 µM (inactive)
GI50 [18]: 48 µM (inactive)
GI50 [19]: > 100 µM (inactive)
GI50 [20]: > 100 µM (inactive)
GI50 [21]: 40.4 µM (inactive)
GI50 [22]: > 100 µM (inactive)
GI50 [23]: 39.4 µM (inactive)
GI50 [24]: 25.5 µM (inactive)
GI50 [25]: > 100 µM (inactive)
GI50 [26]: > 100 µM (inactive)
GI50 [27]: 0.224 µM (active)
GI50 [28]: > 100 µM (inactive)
GI50 [30]: > 100 µM (inactive)
GI50 [31]: 87.9 µM (inactive)
GI50 [32]: 47.3 µM (inactive)
GI50 [33]: 50.6 µM (inactive)
GI50 [34]: 52.1 µM (inactive)
GI50 [35]: > 100 µM (inactive)
GI50 [36]: > 100 µM (inactive)
GI50 [37]: 35 µM (inactive)
GI50 [38]: 47.4 µM (inactive)
GI50 [39]: 85.7 µM (inactive)
GI50 [40]: > 100 µM (inactive)
GI50 [41]: 91.6 µM (inactive)
GI50 [42]: > 100 µM (inactive)
GI50 [43]: > 100 µM (inactive)
GI50 [44]: > 100 µM (inactive)
GI50 [45]: > 100 µM (inactive)
GI50 [57]: > 100 µM (inactive)
GI50 [46]: > 100 µM (inactive)
GI50 [47]: 80.5 µM (inactive)
GI50 [48]: > 100 µM (inactive)
GI50 [49]: > 100 µM (inactive)
GI50 [50]: > 100 µM (inactive)
GI50 [51]: > 100 µM (inactive)
GI50 [52]: 71.3 µM (inactive)
GI50 [53]: > 100 µM (inactive)
GI50 [54]: > 100 µM (inactive)
GI50 [55]: > 100 µM (inactive)
GI50 [56]: 57.4 µM (inactive)
